SMILES strings stand for the structures.

These results are taken from patent US20240343658A1, “MICRONUTRIENT COMPOSITIONS AND SYSTEMS AND METHODS OF USING SAME” (Winfield Solutions, LLC, priority 2016, published 2024).

A short description of the data set: compatibility with pesticides, modified ASTM E1518-05 (2012) tank mixture test. Format: physicochemical. As to conditions: admixture with the zinc-containing adjuvant, after 72 hours. On the procedure:
The zinc-containing adjuvant compositions of the present disclosure were tested for compatibility with pesticides using a modified approach from ASTM E1518-05 (2012), Standard Practice for Evaluation of Physical Compatibility of Pesticides in Aqueous Tank Mixtures by the Dynamic Shaker Method, ASTM International, West Conshohocken, P A, 2012. The pesticides tested included: glyphosate including in its various forms including Roundup®) PowerMax®, Durango®, Cornerstone® 5 plus, Touchdown Total®, Enlist Duo™ (containing glyphosate and 2,4-D) and MON 76382; 2,4-D; Sterling® Blue; Basagran®; Enginia™.
Materials and Methods: The apparatuses used in compatibility testing included: 1. a graduated cylinder, 120 mL; 2. transfer pipets; 3. balance, +0.01 g; 4. a sieve, U.S. standard, 50 mesh (300 μm), 3 inches in diameter; and 5. a flashlight. […] Synthetic water was made according to CIPAC handbook F section MT18.
The final disposition of the compatibility test was on or around 100 mL, and the ratios needed to bring an application of 10 gallons per acre to 100 mL per acre were calculated. 70 percent of the water needed for the compatibility test was added to the cylinder at room temperature. The remaining components were added for the jar test according to WALES and DALES unless otherwise specified by the product label. Applications rates were used from the product label. […]

As to `O=C(O)COc1ccc(Cl)cc1Cl` [2,4-D, 2,4-Dichlorophenoxyacetic acid], the compatibility observation entry was “same results as the 24 hour testing”.
